Results: patent US20250241873A1, “KETAMINE NASAL SPRAY FORMULATION AND METHODS OF USE” (INESKET LLC, priority 2024, published 2025)
Like-named read-outs stand apart in the source and are kept apart here.

Tests used:
[1] = Open-label absolute bioavailability / pharmacokinetic study of intranasal ketamine in healthy volunteers; type: in vivo, human; details: for AUC(0-t): read-out: AUC (0-4 hr); for bioavailability / Absolute Bioavailability (%): relative to IV, dose-corrected ratio of least squares geometric mean AUC(inf)
Experimental: This was an open-label study in 25 healthy volunteers. Subjects received single doses of ketamine by intravenous (IV) injection (20 mg), intramuscular (IM) injection (20 mg), or intranasal (IN) administration (20 mg, 40 mg and 80 mg).
Blood samples for the measurement of plasma concentrations of (R)- and (S)-ketamine and (R)- and (S)-norketamine were collected pre-dose and at 0.033, 0.083, 0.167, 0.25, 0.333, 0.5, 0.75, 1, 1.25, 2, 2.5, 3, 4, 6, 8, 12, 16, and 24 hours post-dose for each study period.
All estimates for the parent and metabolite were consistent within each formulation or dose for the racemate, (R)-, and (S)-enantiomers. After IN administration, the estimates were slightly higher for the metabolite than the parent.

NMDA receptors = details: cited from earlier work
[2] = acidic pH near 4.5
Excerpt: A Buffer may be used to control the pH of the nasal spray solution at, or near 4.5. […] Also, the local pH value inside the nasal cavity directly influences the rate and extent of drug absorption. […] Additionally, maintaining pH at or above 4.0 helps to reduce local nasal tract irritation. The buffer is optional.

[3] = Dose 10 mg, hydro-alcoholic composition, minimum-maximum
[4] = Dose 20 mg, hydro-alcoholic composition, minimum-maximum
[5] = human, plasma, inhaled or intranasal, 20 mg, AUC (0-1 hr), intranasal, effective amount 20 mg
[6] = human, plasma, inhaled or intranasal, 20 mg, intranasal, effective amount 20 mg
[7] = human, plasma, inhaled or intranasal, intranasal, effective amount 20 mg
[8] = human, plasma, other: intranasal, Dose 10 mg, hydro-alcoholic composition, minimum-maximum
[9] = human, plasma, other: intranasal, Dose 20 mg, hydro-alcoholic composition, minimum-maximum
[10] = human, plasma, other: intranasal, IN administration of racemic ketamine 20 mg
[11] = human, plasma, other: intranasal, IN administration of racemic ketamine 40 mg
[12] = human, plasma, other: intranasal, IN administration of racemic ketamine 80 mg
[13] = IN administration of racemic ketamine 20 mg
[14] = IN administration of racemic ketamine 40 mg
[15] = IN administration of racemic ketamine 80 mg
[16] = Dose 40 mg, hydro-alcoholic composition, minimum-maximum
[17] = human, plasma, other: intranasal, Dose 40 mg, hydro-alcoholic composition, minimum-maximum

| Compound | AUC(0-1 hr) [1, 4] | AUC(0-4 hr) [1, 4] | Cmax [1, 9] [ng/mL] | Tmax [1, 9] [min] | bioavailability [1, 10] [%] | bioavailability [1, 11] [%] | bioavailability [1, 12] [%] | Absolute Bioavailability (%) [1, 13] [%] | Absolute Bioavailability (%) [1, 14] [%] | Absolute Bioavailability (%) [1, 15] [%] | also measured |
| --- | --- | --- | --- | --- | --- | --- | --- | --- | --- | --- | --- |
| CN[C@]1(c2ccccc2Cl)CCCCC1=O [(S)-Ketamine] | 30.9-96.7 hr′ng/mL | 66.9-181 hr′ng/mL | 41.3 to 161 | 10 to 30 | 82.4 | 68.9 | 51.5 | – | – | – | AUC(0-1 hr) [1, 3]: 12.8-55.8 hr′ng/mL; AUC(0-4 hr) [1, 3]: 26.4-90.4 hr′ng/mL; AUC(0-1 hr) ([1]; human, plasma, inhaled or intranasal, 10 mg, AUC (0-1 hr), intranasal, effective amount 10 mg): 12.8 to 55.8 ng·h/mL; AUC(0-t) ([1]; human, plasma, inhaled or intranasal, 10 mg, intranasal, effective amount 10 mg): 26.4 to 90.4 ng·h/mL; AUC(0-1 hr) [1, 5]: 30.9 to 96.7 ng·h/mL; AUC(0-t) [1, 6]: 66.9 to 181 ng·h/mL; Tmax ([1]; human, plasma, inhaled or intranasal, intranasal, effective amount 10 mg): 5 to 19.8 min; Tmax [1, 7]: 10 to 30 min; Cmax [1, 8]: 21.4 to 125 ng/mL; Tmax [1, 8]: 5 to 20 min; Ki (NMDA receptors): 3200 nM |
| NC1(c2ccccc2Cl)CCCCC1=O (racemic) [(RS)-Norketamine] | – | – | – | – | – | – | – | 94.4 | 78.8 | 54.8 | – |
| N[C@]1(c2ccccc2Cl)CCCCC1=O [(S)-Norketamine] | – | – | – | – | – | – | – | 92.4 | 77.8 | 54.9 | – |
| CN[C@@]1(c2ccccc2Cl)CCCCC1=O [(R)-Ketamine] | 40.5-129 hr′ng/mL | 93.0-251 hr′ng/mL | 53.4 to 206 | 10 to 30 | 81.6 | 68.6 | 51.1 | – | – | – | AUC(0-1 hr) [1, 3]: 15.9-70.8 hr′ng/mL; AUC(0-4 hr) [1, 3]: 33.6-118 hr′ng/mL; Cmax [1, 8]: 26.5 to 155 ng/mL; Tmax [1, 8]: 4.98 to 30 min; Ki (NMDA receptors): 1100 nM |
| CNC1(c2ccccc2Cl)CCCCC1=O (racemic) [(RS)-Ketamine, (2-(2-chlorophenyl)-2-(methylamino)-cyclohexanone)] | 28.7-127 hr′ng/mL | 60.0-209 hr′ng/mL | 48 to 280 | 4.98 to 30 | 82.1 | 69.1 | 51.8 | – | – | – | AUC(0-1 hr) [1, 16]: 71.4-225 hr′ng/mL; AUC(0-4 hr) [1, 16]: 160-433 hr′ng/mL; AUC(0-1 hr) [1, 5]: 28.7 to 127 ng·h/mL; AUC(0-t) [1, 6]: 60 to 209 ng·h/mL; AUC(0-1 hr) ([1]; human, plasma, inhaled or intranasal, 40 milligrams, AUC (0-1 hr), intranasal, effective amount 40 milligrams): 71.4 to 225 ng·h/mL; AUC(0-t) ([1]; human, plasma, inhaled or intranasal, 40 milligrams, intranasal, effective amount 40 milligrams): 160 to 433 ng·h/mL; Tmax [1, 7]: 4.98 to 30 min; Tmax ([1]; human, plasma, inhaled or intranasal, intranasal, effective amount 40 milligrams): 10 to 30 min; Cmax [1, 17]: 94.7 to 367 ng/mL; Tmax [1, 17]: 10 to 30 min |
| CNC1(c2ccccc2Cl)CCCCC1=O.Cl (stereo not drawn) [Es/ketamine HCl] | – | – | – | – | – | – | – | – | – | – | stability of solution [2]: better stability |
| N[C@@]1(c2ccccc2Cl)CCCCC1=O [(R)-Norketamine] | – | – | – | – | – | – | – | 90.7 | 77.8 | 54.3 | – |
